Assay results reported in patent publication US10730866B2, “Indole derivatives and use thereof” (Purdue Pharma L.P., priority 2014, dated 2020).

These compounds were tested against human Nav1.7 (Homo sapiens (Human), UniProt Q15858) (assay: FLIPR or FLIPR TETRA sodium dye assay for sodium channel blocking activity). Conditions: recombinant HEK293 cells expressing human Nav1.7.
human Nav1.7, sequence (Q15858 other isoform, or with tags, fused parts or gaps): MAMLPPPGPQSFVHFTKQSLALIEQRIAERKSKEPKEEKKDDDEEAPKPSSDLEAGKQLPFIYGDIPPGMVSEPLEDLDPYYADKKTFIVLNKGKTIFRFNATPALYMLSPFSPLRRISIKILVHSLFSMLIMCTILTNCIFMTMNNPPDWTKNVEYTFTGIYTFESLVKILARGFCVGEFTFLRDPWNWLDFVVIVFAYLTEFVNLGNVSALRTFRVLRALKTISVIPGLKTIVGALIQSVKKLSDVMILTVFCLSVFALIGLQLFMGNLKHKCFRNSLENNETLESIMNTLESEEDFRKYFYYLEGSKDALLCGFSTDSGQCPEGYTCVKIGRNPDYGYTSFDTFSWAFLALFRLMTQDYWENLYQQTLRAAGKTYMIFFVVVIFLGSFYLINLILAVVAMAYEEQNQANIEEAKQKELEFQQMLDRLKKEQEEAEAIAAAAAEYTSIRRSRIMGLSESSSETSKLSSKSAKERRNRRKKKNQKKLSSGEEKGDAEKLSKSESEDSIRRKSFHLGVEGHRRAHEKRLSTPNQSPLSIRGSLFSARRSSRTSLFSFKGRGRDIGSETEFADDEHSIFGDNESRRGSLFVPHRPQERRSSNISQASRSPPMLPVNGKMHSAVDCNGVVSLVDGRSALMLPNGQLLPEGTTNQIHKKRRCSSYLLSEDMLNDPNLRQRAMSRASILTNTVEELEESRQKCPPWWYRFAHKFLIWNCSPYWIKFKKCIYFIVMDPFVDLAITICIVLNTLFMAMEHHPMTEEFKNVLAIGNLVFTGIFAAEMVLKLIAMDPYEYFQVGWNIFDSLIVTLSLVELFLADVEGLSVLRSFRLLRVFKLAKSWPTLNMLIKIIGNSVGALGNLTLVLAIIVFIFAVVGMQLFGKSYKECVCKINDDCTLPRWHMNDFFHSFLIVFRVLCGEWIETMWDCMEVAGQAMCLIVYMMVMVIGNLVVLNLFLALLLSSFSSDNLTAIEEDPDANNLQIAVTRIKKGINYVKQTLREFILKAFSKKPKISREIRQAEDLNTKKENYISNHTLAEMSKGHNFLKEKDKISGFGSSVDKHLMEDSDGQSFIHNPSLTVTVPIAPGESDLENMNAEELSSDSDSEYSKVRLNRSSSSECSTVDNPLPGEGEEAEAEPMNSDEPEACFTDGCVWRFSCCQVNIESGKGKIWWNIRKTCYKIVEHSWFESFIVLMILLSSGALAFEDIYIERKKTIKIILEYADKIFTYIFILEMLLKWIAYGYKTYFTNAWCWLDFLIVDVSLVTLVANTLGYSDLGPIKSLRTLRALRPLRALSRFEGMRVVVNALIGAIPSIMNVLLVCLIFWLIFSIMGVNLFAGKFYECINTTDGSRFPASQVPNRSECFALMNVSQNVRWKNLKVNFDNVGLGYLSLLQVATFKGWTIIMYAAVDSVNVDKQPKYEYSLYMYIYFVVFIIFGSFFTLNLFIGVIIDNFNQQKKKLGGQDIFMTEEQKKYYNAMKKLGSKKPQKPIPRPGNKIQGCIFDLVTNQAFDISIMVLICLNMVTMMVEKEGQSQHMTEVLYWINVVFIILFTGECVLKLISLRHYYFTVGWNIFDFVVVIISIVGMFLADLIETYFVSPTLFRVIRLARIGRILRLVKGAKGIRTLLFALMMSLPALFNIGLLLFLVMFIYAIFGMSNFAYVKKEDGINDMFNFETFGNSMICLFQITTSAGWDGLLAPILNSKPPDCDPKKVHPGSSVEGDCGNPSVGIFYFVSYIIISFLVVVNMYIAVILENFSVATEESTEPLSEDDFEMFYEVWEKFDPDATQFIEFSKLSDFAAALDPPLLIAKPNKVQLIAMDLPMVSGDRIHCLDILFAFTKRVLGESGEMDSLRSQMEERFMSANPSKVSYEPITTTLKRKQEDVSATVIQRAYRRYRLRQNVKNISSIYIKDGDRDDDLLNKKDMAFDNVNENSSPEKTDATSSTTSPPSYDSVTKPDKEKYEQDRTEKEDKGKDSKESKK
Format: cell-based
Description: In vitro assays were performed in a recombinant cell line expressing cDNA encoding the alpha subunit (Nav1.7, SCN9a, PN1, NE) of human Nav1.7 (Accession No. NM_002977). The cell line was provided by investigators at Yale University (Cummins et al, J. Neurosci. 18(23): 9607-9619 (1998)). For dominant selection of the Nav1.7-expressing clones, the expression plasmid co-expressed the neomycin resistance gene. The cell line was constructed in the human embryonic kidney cell line, HEK293, under the influence of the CMV […] promoter, and stable clones were selected using limiting dilution cloning and antibiotic selection using the neomycin analogue, G418. Recombinant beta and gamma subunits were not introduced into this cell line. Additional cell lines expressing recombinant Nav1.7 cloned from other species can also be used, alone or in combination with various beta subunits, gamma subunits or chaperones.
Unless otherwise noted, cell culture reagents were purchased from Mediatech of Herndon, Va. The recombinant Nav1.7/HEK293 cells were routinely cultured in growth medium consisting of Dulbecco's […] essential medium containing 10% fetal bovine serum (FBS, Hyclone, Thermo Fisher Scientific, Logan, Utah), 100 U/mL penicillin, 100 μg/mL streptomycin, 2-4 mM L-glutamine, and […] G418. For natural, non-recombinant cell lines, the selective antibiotic was omitted, and additional media formulations can be applied as needed.
The final buffer consisted of 20 mM Hepes, pH 7.3, 1.261 mM CaCl2, 0.493 mM MgCl2, 0.407 mM Mg(SO)4, 5.33 mM KCl, 0.441 mM KH2PO4, 137 mM NaCl, 0.336 mM Na2HPO4 and […] D-glucose (Hanks et al., Proc. Soc. Exp. Biol. Med. 71:196 (1949)), and the simple formulation was typically the basic buffer throughout the assay (i.e., all wash and addition steps).
The fluorescence indicator used in the primary fluorescence assay was the cell permeant version of CoroNa™ Green (Invitrogen, Molecular Probes, Eugene, Oreg.), a dye that emits light in the fluorescence range (Harootunian et al., J. Biol. Chem. 264(32):19458-19467 (1989)). The intensity of this emission, but not the wavelength range, is increased when the dye is exposed to Na^+ ions, which it can bind with partial selectivity. Cells expressing Nav1.7 or other sodium channels were loaded with the CoroNa™ Green dye immediately in advance of the fluorescence assay, and then, after agonist stimulation, the mobilization of Na^+ ions was detected as the Na^+ ions flowed from the extracellular fluid into the cytoplasm through the activated sodium channel pores. The dye was stored in the dark as a lyophilized powder, and then an aliquot was dissolved immediately before the cell loading procedure, according to the instructions of the manufacturer, to a stock concentration of 10 mM in DMSO. It was then diluted in the assay buffer to a 4× concentrated working solution, so that the final concentration of dye in the cell loading buffer was 5 μM.
In the fluorescence assays, two agonists were used in combination, namely 1) veratridine; and 2) the venom from the yellow scorpion, Leiurus quinquestriatus hebraeus. Veratridine is an alkaloid small molecule that facilitates the capture of channel openings by inhibiting inactivation, and the scorpion venom is a natural preparation that includes peptide toxins selective for different subsets of voltage-gated sodium channels. These scorpion toxins inhibit the fast inactivation of their cognate target channels. Stock solutions of the agonists were prepared to 40 mM in DMSO (veratridine) and 1 mg/mL in dH2O (scorpion venom), and then diluted to make a 4× or 2× stock (depending on the particular assay) in assay buffer, the final concentration being 100 μM (veratridine) and 10 μg/mL (scorpion venom). Both of the agonists were purchased from Sigma Aldrich, St. Louis, Mo.
Test compounds were dissolved in DMSO to yield 10 mM stock solutions. […]
`CC1CN(C(=O)c2cccc(-c3ccc4[nH]ccc4c3)n2)CC(C)O1` (centres unmarked) [Compound 86, (6-(1H-indol-5-yl)pyridin-2-yl)(2,6-dimethylmorpholino)methanone] was tested, and the IC50 was over 20 µM.
`O=C(Nc1nnn[nH]1)c1cccc(-c2ccc3[nH]ccc3c2)n1` [Compound 87, 6-(1H-indol-5-yl)-N-(1H-tetrazol-5-yl)picolinamide] showed an IC50 of over 20 µM.
Compound `O=C(Nc1ccc(C(F)(F)F)cc1)c1cc(N[C@H]2CCNC2=O)cc(-c2ccc3[nH]ccc3c2)n1` [Compound 88, (S)-6-(1H-indol-5-yl)-4-((2-oxopyrrolidin-3-yl)amino)-N-(4-(trifluoromethyl)phenyl)picolinamide] has an IC50 of 4.89 ± 0.388 µM.
Work on `OC[C@@H](O)c1cccc(-c2ccc3nn(Cc4ccc(C(F)(F)F)cc4)cc3c2)n1` [Compound 108, (S)-1-(6-(2-(4-(trifluoromethyl)benzyl)-2H-indazol-5-yl)pyridin-2-yl)ethane-1,2-diol] yielded an IC50 of 4.68 ± 0.412 µM.
In the case of `OC[C@@H](O)c1cccc(-c2ccc3c(ccn3Cc3ccc(C(F)(F)F)cc3)c2)n1` [Compound 109, (S)-1-(6-(1-(4-(trifluoromethyl)benzyl)-1H-indol-5-yl)pyridin-2-yl)ethane-1,2-diol], the IC50 is reported as 0.177 ± 0.005 µM.
`OC[C@@H](O)c1cccc(-c2ccc3c(c2)ncn3Cc2ccc(C(F)(F)F)cc2)n1` [Compound 110, (S)-1-(6-(1-(4-(trifluoromethyl)benzyl)-1H-benzo[d]imidazol-5-yl)pyridin-2-yl)ethane-1,2-diol] was tested, and the IC50 was 3.44 ± 0.712 µM.
In the case of `O=S(=O)(N1CCCCC1)n1ccc2cc(-c3cccc([C@H](O)CO)n3)ccc21` [Compound 111, (S)-1-(6-(1-(piperidin-1-ylsulfonyl)-1H-indol-5-yl)pyridin-2-yl)ethane-1,2-diol], the IC50 is reported as 0.716 ± 0.073 µM.
Compound `C[C@H](Nc1cc(C(N)=O)nc(-c2ccc3c(ccn3Cc3ccc(C(F)(F)F)cc3)c2)n1)C(N)=O` [Compound 112, (S)-6-((1-amino-1-oxopropan-2-yl)amino)-2-(1-(4-(trifluoromethyl)benzyl)-1H-indol-5-yl)pyrimidine-4-carboxamide] has an IC50 of 4.12 ± 0.525 µM.
With `C[C@H](Nc1cc(C(N)=O)nc(-c2ccc3c(ccn3CC3CCCCC3)c2)n1)C(N)=O` [Compound 113, (S)-6-((1-amino-1-oxopropan-2-yl)amino)-2-(1-(cyclohexylmethyl)-1H-indol-5-yl)pyrimidine-4-carboxamide] the IC50 was 4.43 ± 0.541 µM.
`N#Cc1cc([C@@H](O)CO)cc(-c2ccc3c(ccn3Cc3ccc(C(F)(F)F)cc3)c2)n1` [Compound 119, (R)-4-(1,2-dihydroxyethyl)-6-(1-(4-(trifluoromethyl)benzyl)-1H-indol-5-yl)picolinonitrile] gave an IC50 of 5.09 ± 0.356 µM.
`NC(=O)c1cc([C@H](O)CO)cc(-c2ccc3c(ccn3Cc3ccc(C(F)(F)F)cc3)c2)n1` [Compound 121, (S)-4-(1,2-dihydroxyethyl)-6-(1-(4-(trifluoromethyl)benzyl)-1H-indol-5-yl)picolinamide] showed an IC50 of 2.37 ± 0.364 µM.
`NC(=O)c1cc(-c2ccc3c(ccn3Cc3ccc(C(F)(F)F)cc3)c2)cc([C@@H](O)CO)n1` [Compound 122, (R)-6-(1,2-dihydroxyethyl)-4-(1-(4-(trifluoromethyl)benzyl)-1H-indol-5-yl)picolinamide] gave an IC50 of 1.74 ± 0.214 µM.
In the case of `CC(C)Cn1ccc2cc(-c3cc([C@H](O)CO)cc(C(N)=O)n3)ccc21` [Compound 124, (S)-4-(1,2-dihydroxyethyl)-6-(1-isobutyl-1H-indol-5-yl)picolinamide], the IC50 is reported as 4.92 ± 0.7 µM.
Work on `CC(C)Cn1ccc2cc(-c3cc([C@@H](O)CO)cc(C(N)=O)n3)ccc21` [Compound 125, (R)-4-(1,2-dihydroxyethyl)-6-(1-isobutyl-1H-indol-5-yl)picolinamide] yielded an IC50 of over 20 µM.
Compound `CC(C)Cn1ccc2cc(-c3cc(C(N)=O)nc([C@H](O)CO)c3)ccc21` [Compound 126, (S)-6-(1,2-dihydroxyethyl)-4-(1-isobutyl-1H-indol-5-yl)picolinamide] has an IC50 of 5.91 ± 0.536 µM.
`Cn1cc(-c2cccc(C(F)(F)F)c2)c2cc(-c3cccc(C(N)=O)n3)ccc21` [Compound 129, 6-(1-methyl-3-(3-(trifluoromethyl)phenyl)-1H-indol-5-yl)picolinamide] was tested, and the IC50 was 10 to 20 µM.
`Cn1cc(-c2ccc(C(F)(F)F)cc2)c2cc(-c3cccc(C(N)=O)n3)ccc21` [Compound 130, 6-(1-methyl-3-(4-(trifluoromethyl)phenyl)-1H-indol-5-yl)picolinamide] was tested, and the IC50 was over 20 µM.
Work on `CCN(CC)CCn1cc(-c2ccc(F)cc2)c2ccc(-c3cccc(C(N)=O)n3)cc21` [Compound 131, 6-(1-(2-(diethylamino)ethyl)-3-(4-fluorophenyl)-1H-indol-6-yl)picolinamide] yielded an IC50 of over 20 µM.
Compound `Nc1cc(C(=O)Nc2ccc(C(F)(F)F)cc2)nc(-c2ccc3occc3c2)n1` [Compound 138, 6-amino-2-(benzofuran-5-yl)-N-(4-(trifluoromethyl)phenyl)pyrimidine-4-carboxamide] has an IC50 of 3.66 ± 2.4 µM.
In the case of `O=C(Nc1ccc(C(F)(F)F)cc1)c1cccc(-c2ccc3[nH]cc(C(=O)O)c3c2)n1` [Compound 139, 5-(6-((4-(trifluoromethyl)phenyl)carbamoyl)pyridin-2-yl)-1H-indole-3-carboxylic acid], the IC50 is reported as over 20 µM.
With `NC(=O)c1c[nH]c2ccc(-c3cccc(C(=O)Nc4ccc(C(F)(F)F)cc4)n3)cc12` [Compound 140, 5-(6-((4-(trifluoromethyl)phenyl)carbamoyl)pyridin-2-yl)-1H-indole-3-carboxamide] the IC50 was over 20 µM.
With `NC(=O)CC[C@H](NC(=O)c1c[nH]c2ccc(-c3cccc(C(=O)Nc4ccc(C(F)(F)F)cc4)n3)cc12)C(N)=O` [Compound 141, (S)-2-(5-(6-((4-(trifluoromethyl)phenyl)carbamoyl)pyridin-2-yl)-1H-indole-3-carboxamido)pentanediamide] the IC50 was over 20 µM.
For `NC(=O)c1cccc(-c2ccc3c(c2)c(C(N)=O)cn3Cc2ccc(C(F)(F)F)cc2)n1` [Compound 142, 5-(6-carbamoylpyridin-2-yl)-1-(4-(trifluoromethyl)benzyl)-1H-indole-3-carboxamide], the IC50 was over 20 µM.
With `C[C@H](NC(=O)c1cn(Cc2ccc(C(F)(F)F)cc2)c2ccc(-c3cccc(C(N)=O)n3)cc12)C(N)=O` [Compound 143, (S)-N-(1-amino-1-oxopropan-2-yl)-5-(6-carbamoylpyridin-2-yl)-1-(4-(trifluoromethyl)benzyl)-1H-indole-3-carboxamide] the IC50 was over 20 µM.
Compound `NC(=O)c1cccc(-c2ccc3c(c2)c(CN[C@H]2CCNC2=O)cn3Cc2ccc(C(F)(F)F)cc2)n1` [Compound 144, (S)-6-(3-(((2-oxopyrrolidin-3-yl)amino)methyl)-1-(4-(trifluoromethyl)benzyl)-1H-indol-5-yl)picolinamide] has an IC50 of 2.54 ± 0.181 µM.
`NC(=O)c1cccc(-c2ccc3c(c2)c(CN[C@H]2CCNC2=O)cn3CC2CCCCC2)n1` [Compound 145, (S)-6-(1-(cyclohexylmethyl)-3-(((2-oxopyrrolidin-3-yl)amino)methyl)-1H-indol-5-yl)picolinamide] gave an IC50 of 10 to 20 µM.
`NC(=O)[C@H](O)[C@@H](O)c1cccc(-c2ccc3c(ccn3Cc3ccc(C(F)(F)F)cc3)c2)n1` [Compound 151, (2R,3S)-2,3-dihydroxy-3-(6-(1-(4-(trifluoromethyl)benzyl)-1H-indol-5-yl)pyridin-2-yl)propanamide] gave an IC50 of 0.773 ± 0.09 µM.
For `NC(=O)[C@H](O)[C@@H](O)c1cccc(-c2ccc3c(ccn3CC3CCCCC3)c2)n1` [Compound 152, (2R,3S)-3-(6-(1-(cyclohexylmethyl)-1H-indol-5-yl)pyridin-2-yl)-2,3-dihydroxypropanamide], the IC50 was 0.402 ± 0.032 µM.
Work on `CC(C)Cn1ccc2cc(-c3cccc([C@H](O)[C@@H](O)C(N)=O)n3)ccc21` [Compound 153, (2R,3S)-2,3-dihydroxy-3-(6-(1-isobutyl-1H-indol-5-yl)pyridin-2-yl)propanamide] yielded an IC50 of 2.62 ± 0.071 µM.
